pKi: −log10 of the molar value.

Experimental findings from US7652153B2, “Caspase inhibitors and uses thereof” (Vertex Pharmaceuticals Incorporated, priority 2004, dated 2010) are described below.

The target of one assay is T1, caspase-1 (Homo sapiens, UniProt P29466).
T1 sequence (P29466 120-297 limits assumed): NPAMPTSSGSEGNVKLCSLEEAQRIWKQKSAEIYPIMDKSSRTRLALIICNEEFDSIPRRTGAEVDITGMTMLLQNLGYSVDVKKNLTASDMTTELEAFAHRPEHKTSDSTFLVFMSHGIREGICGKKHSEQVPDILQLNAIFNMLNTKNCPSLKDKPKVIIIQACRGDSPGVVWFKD
T1 sequence (P29466 317-404 limits assumed): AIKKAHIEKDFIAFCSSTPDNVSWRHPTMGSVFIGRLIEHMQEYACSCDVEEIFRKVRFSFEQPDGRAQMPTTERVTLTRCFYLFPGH
Briefly: Caspase-1 enzyme inhibition (Ki, method of Margolin et al.). The conditions noted are these: Suc-YVAD-pNA substrate 80 μM, 37° C., pH 7.5; read-out: Ki C1. Type of assay: biochemical. The procedure: (§1) Compounds of this invention may be tested using the methods described below.
(§2) In Vitro Assays Enzyme Inhibition
(§3) Ki values for test compounds with caspase-1 and caspase-8 were obtained by the method of Margolin et al. (J. Biol. Chem., 272 pp. 7223-7228 (1997)). Other caspases may be assayed similarly (see, e.g., WO 99/47545). Assays were performed in 10 mM Tris (Sigma Corp, St Louis Mo.) pH 7.5, 1 mM Dithiothreitol (DTT, Research Organic INC, Cleveland, Ohio) and 0.1% CHAPS (Pierce, Rockford Ill.) at 37° C. For caspase-3, a solution of 8% glycerol was added to the assay buffer to improve enzyme stability. A 65 μL aliquot of the assay buffer and 5 μL aliquot of the appropriate dilutions of inhibitor in DMSO where pipetted into a 96 well plate, treated with 10 μL of caspase, then diluted in assay buffer (0.5-40 nM active protein by active site titration). A control containing DMSO but no compound was included for each determination. The plates were then incubated for 15 minutes at 37° C., before addition of the appropriate substrate (20 μL, final concentration 1-4×KM, final assay volume 100 μL) to initiate the reaction. Reaction rates were measured at 37° C. either by following the time dependant increase in absorbance at 405 nm (for the pNA substrates) or in fluorescence (Ex 390, Em 460) (for the AMC substrates). The rates obtained were plotted against inhibitor concentration and the data fit to the Morrison tight-binding equation for competitive inhibitors (Morrison, J. F., Biochem. Biophys. Acta, 185 pp. 269-286 (1969)). The substrates used for the individual assays were as follows:
Caspase-1 Suc-YVAD-pNA (Bachem, King of Prussia, Pa.) (final concentration in the assay 80 μM);

For the next assay, the target named is caspase-8 (Homo sapiens, UniProt Q14790). Briefly: Caspase-8 enzyme inhibition (Ki, method of Margolin et al.). Type of assay: biochemical. To be noted: Ac-DEVD-pNA substrate 80 μM, 37° C., pH 7.5; read-out: Ki C8. The procedure:
as §1, §2, §3
Caspase-8 Ac-DEVD-pNA (Bachem, King of Prussia, Pa.) (final concentration in assay 80 μM).

caspase-8, sequence (Q14790 217-374 limits assumed, species assumed): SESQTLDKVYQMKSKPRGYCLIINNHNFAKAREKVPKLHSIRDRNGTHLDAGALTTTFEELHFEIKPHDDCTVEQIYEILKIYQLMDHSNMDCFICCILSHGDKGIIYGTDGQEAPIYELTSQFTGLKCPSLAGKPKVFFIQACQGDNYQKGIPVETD
caspase-8, sequence (Q14790 385-479 limits assumed, species assumed): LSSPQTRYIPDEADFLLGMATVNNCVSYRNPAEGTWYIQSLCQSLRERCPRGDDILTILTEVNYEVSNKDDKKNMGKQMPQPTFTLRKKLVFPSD

As usually defined, the pKi is the negative decadic logarithm of the Ki, by convention in mol/L. On to `CC(C)[C@H](NC(=O)c1cccc(Cl)c1Cl)C(=O)N1CCC[C@H]1C(=O)N[C@H](C=O)CC(=O)O` [II-8, (S,S,S)-(3S)-({1-[(2S)-(2,3-Dichloro-benzoylamino)-3-methyl-butyryl]-pyrrolidine-(2S)-carbonyl}-amino)-4-oxo-butyric acid], for which the pKi is over 8.00 on caspase-1 and 7.70 to 8.00 on caspase-8.

Consider `CC(C)[C@H](NC(=O)c1cccc(C(F)(F)F)c1Cl)C(=O)N1CCC[C@H]1C(=O)N[C@H](C=O)CC(=O)O` [II-9, (S,S,S)-(3S)-({1-[(2S)-(2-Chloro-3-trifluoromethyl-benzoylamino)-3-methyl-butyryl]-pyrrolidine-(2S)-carbonyl}-amino)-4-oxo-butyric acid], for which the pKi was over 8.00 on caspase-1 and 7.70 to 8.00 at caspase-8.

On to `Cc1c(Cl)cccc1C(=O)N[C@H](C(=O)N1CCC[C@H]1C(=O)N[C@H](C=O)CC(=O)O)C(C)C` [II-10, (S,S,S)-(3S)-({1-[(2S)-(3-Chloro-2-methyl-benzoylamino)-3-methyl-butyryl]-pyrrolidine-(2S)-carbonyl}-amino)-4-oxo-butyric acid], for which the pKi on caspase-1 is over 8.00; on caspase-8 it was 7.70 to 8.00.

Take `CC(C)[C@H](NC(=O)c1ccc(Cl)cc1Cl)C(=O)N1CCC[C@H]1C(=O)N[C@H](C=O)CC(=O)O` [II-11, (S,S,S)-(3S)-({1-[(2S)-(2,4-Dichloro-benzoylamino)-3-methyl-butyryl]-pyrrolidine-(2S)-carbonyl}-amino)-4-oxo-butyric acid]: the values for the negative-log Ki (pKi) at caspase-1 and at caspase-8 were over 8.00 and 7.52 to 7.68, respectively.

For `CC(C)[C@H](NC(=O)c1cc(Cl)ccc1Cl)C(=O)N1CCC[C@H]1C(=O)N[C@H](C=O)CC(=O)O` [II-12, (S,S,S)-(3S)-({1-[(2S)-(2,5-Dichloro-benzoylamino)-3-methyl-butyryl]-pyrrolidine-(2S)-carbonyl}-amino)-4-oxo-butyric acid], the pKi on caspase-1 is over 8.00; at caspase-8 it was 7.70 to 8.00.

As to `CC(C)[C@H](NC(=O)c1c(Cl)cccc1Cl)C(=O)N1CCC[C@H]1C(=O)N[C@H](C=O)CC(=O)O` [II-13, (S,S,S)-(3S)-({1-[(2S)-(2,6-Dichloro-benzoylamino)-3-methyl-butyryl]-pyrrolidine-(2S)-carbonyl}-amino)-4-oxo-butyric acid], the negative-log Ki (pKi) at caspase-1 and on caspase-8 was 7.70 to 8.00 throughout.

`Cc1cccc(C)c1C(=O)N[C@H](C(=O)N1CCC[C@H]1C(=O)N[C@H](C=O)CC(=O)O)C(C)C` [II-14, (S,S,S)-(3S)-({1-[(2S)-(2,6-Methyl-benzoylamino)-3-methyl-butyryl]-pyrrolidine-(2S)-carbonyl}-amino)-4-oxo-butyric acid]: the pKi on caspase-1 is 7.70 to 8.00; at caspase-8, over 8.00.

Consider `Cc1ncccc1C(=O)N[C@H](C(=O)N1CCC[C@H]1C(=O)N[C@H](C=O)CC(=O)O)C(C)C` [II-15, (S,S,S)-(3S)-[(1-{3-Methyl-(2S)-[(2-methyl-pyridine-3-carbonyl)-amino]-butyryl}-pyrrolidine-(2S)-carbonyl)-amino]-4-oxo-butyric acid], for which the pKi on caspase-1 is over 8.00; at caspase-8, 7.52 to 7.68.

For the molecule `Cc1ccncc1C(=O)N[C@H](C(=O)N1CCC[C@H]1C(=O)N[C@H](C=O)CC(=O)O)C(C)C` [II-16, (S,S,S)-(3S)-[(1-{3-Methyl-(2S)-[(4-methyl-pyridine-3-carbonyl)-amino]-butyryl}-pyrrolidine-(2S)-carbonyl)-amino]-4-oxo-butyric acid], the pKi was over 8.00 on caspase-1 and 7.52 to 7.68 on caspase-8.

For the molecule `Cc1ccsc1C(=O)N[C@H](C(=O)N1CCC[C@H]1C(=O)N[C@H](C=O)CC(=O)O)C(C)C` [II-17, (S,S,S)-(3S)-[(1-{3-Methyl-(2S)-[(3-methyl-thiophene-2-carbonyl)-amino]-butyryl}-pyrrolidine-(2S)-carbonyl)-amino]-4-oxo-butyric acid], the pKi at caspase-1 and at caspase-8 was over 8.00 in each case.

For `CC(C)[C@H](NC(=O)c1ccnc(Cl)c1Cl)C(=O)N1CCC[C@H]1C(=O)N[C@H](C=O)CC(=O)O` [II-18, (S,S,S)-(3S)-[(1-{(2S)-[(2,3-Dichloro-pyridine-4-carbonyl)-amino]-3-methyl-butyryl}-pyrrolidine-(2S)-carbonyl)-amino]-4-oxo-butyric acid], the pKi was over 8.00 at caspase-1 and 7.70 to 8.00 on caspase-8.

As for `CC(C)[C@H](NC(=O)c1c(Cl)cncc1Cl)C(=O)N1CCC[C@H]1C(=O)N[C@H](C=O)CC(=O)O` [II-19, (S,S,S)-(3S)-[(1-{(2S)-[(3,5-Dichloro-pyridine-4-carbonyl)-amino]-3-methyl-butyryl}-pyrrolidine-(2S)-carbonyl)-amino]-4-oxo-butyric acid], the values for the pKi at caspase-1 and on caspase-8 were 7.70 to 8.00 and over 8.00, respectively.

With `COc1cccc(C(=O)N[C@H](C(=O)N2CCC[C@H]2C(=O)N[C@H](C=O)CC(=O)O)C(C)(C)C)c1C` [II-20, (S,S,S)-(3S)-({1-[(2S)-(3-Methoxy-2-methyl-benzoylamino)-3,3-dimethyl-butyryl]-pyrrolidine-(2S)-carbonyl}-amino)-4-oxo-butyric acid], the pKi on caspase-1 and on caspase-8 was over 8.00 in each case.

Turning to `COc1cccc(C(=O)N[C@@H](CC(F)(F)F)C(=O)N2CCC[C@H]2C(=O)N[C@H](C=O)CC(=O)O)c1C` [II-21, (S,S,S)-4-Oxo-(3S)-({1-[4,4,4-trifluoro-(2S)-(2-methyl-3-methoxy-benzoylamino)-butyryl]-pyrrolidine-(2S)-carbonyl}-amino)-butyric acid], the pKi was over 8.00 on caspase-1 and 7.52 to 7.68 at caspase-8.

For `COc1ccc(C)c(C(=O)N[C@H](C(=O)N2CCC[C@H]2C(=O)N[C@H](C=O)CC(=O)O)C(C)C)c1` [II-22, (S,S,S)-(3S)-({1-[(2S)-(5-Methoxy-2-methyl-benzoylamino)-3-methyl-butyryl]-pyrrolidine-(2S)-carbonyl}-amino)-4-oxo-butyric acid], the negative-log Ki (pKi) is over 8.00 on caspase-1 and 7.52 to 7.68 at caspase-8.

Regarding `COc1cccc(C(=O)N[C@@H](Cc2cscn2)C(=O)N2CCC[C@H]2C(=O)N[C@H](C=O)CC(=O)O)c1C` [II-23, (S,S,S)-(3S)-({1-[(2S)-(3-Methoxy-2-methyl-benzoylamino)-3-thiazol-4-yl-propionyl]-pyrrolidine-(2S)-carbonyl}-amino)-4-oxo-butyric acid], the pKi on caspase-1 was over 8.00; at caspase-8, 7.52 to 7.68.

On to `O=C[C@H](CC(=O)O)NC(=O)[C@@H]1CCCN1C(=O)[C@H](CC(F)(F)F)NC(=O)c1ccccc1Cl` [II-24, (S,S,S)-(3S)-({1-[(2S)-(2-Chloro-benzoylamino)-4,4,4-trifluoro-butyryl]-pyrrolidine-(2S)-carbonyl}-amino)-4-oxo-butyric acid], for which the values for the pKi on caspase-1 and on caspase-8 were over 8.00 and 7.52 to 7.68, respectively.

For the molecule `O=C[C@H](CC(=O)O)NC(=O)[C@@H]1CCCN1C(=O)[C@H](Cc1cscn1)NC(=O)c1ccccc1Cl` [II-25, (S,S,S)-(3S)-({1-[(2S)-(2-Chloro-benzoylamino)-3-thiazol-4-yl-propionyl]-pyrrolidine-(2S)-carbonyl}-amino)-4-oxo-butyric acid], the pKi on caspase-1 was over 8.00; at caspase-8, 7.52 to 7.68.

As to `Cc1ccccc1C(=O)N[C@H](C(=O)N1CCC[C@H]1C(=O)N[C@H](C=O)CC(=O)O)C(C)(C)C` [II-26, (S,S,S)-(3S)-({1-[3,3-Dimethyl-(2S)-(2-methyl-benzoylamino)-butyryl]-pyrrolidine-(2S)-carbonyl}-amino)-4-oxo-butyric acid], the pKi on caspase-1 and at caspase-8 was over 8.00 each time.
